How the values were obtained:
Assay type in all cases: cell-based
hPRB and SMRT = molecular target: T1, hPRB and SMRT (Homo sapiens, UniProt P06401); experiment: Mammalian two hybrid assay, recruitment of co-repressor SMRT by hPRB; settings: HEK293T, FIGS. 13 and 14
T1 construct: expressed in transfected cells; host or cells: HEK 293T
T1 sequence (P06401 1-933): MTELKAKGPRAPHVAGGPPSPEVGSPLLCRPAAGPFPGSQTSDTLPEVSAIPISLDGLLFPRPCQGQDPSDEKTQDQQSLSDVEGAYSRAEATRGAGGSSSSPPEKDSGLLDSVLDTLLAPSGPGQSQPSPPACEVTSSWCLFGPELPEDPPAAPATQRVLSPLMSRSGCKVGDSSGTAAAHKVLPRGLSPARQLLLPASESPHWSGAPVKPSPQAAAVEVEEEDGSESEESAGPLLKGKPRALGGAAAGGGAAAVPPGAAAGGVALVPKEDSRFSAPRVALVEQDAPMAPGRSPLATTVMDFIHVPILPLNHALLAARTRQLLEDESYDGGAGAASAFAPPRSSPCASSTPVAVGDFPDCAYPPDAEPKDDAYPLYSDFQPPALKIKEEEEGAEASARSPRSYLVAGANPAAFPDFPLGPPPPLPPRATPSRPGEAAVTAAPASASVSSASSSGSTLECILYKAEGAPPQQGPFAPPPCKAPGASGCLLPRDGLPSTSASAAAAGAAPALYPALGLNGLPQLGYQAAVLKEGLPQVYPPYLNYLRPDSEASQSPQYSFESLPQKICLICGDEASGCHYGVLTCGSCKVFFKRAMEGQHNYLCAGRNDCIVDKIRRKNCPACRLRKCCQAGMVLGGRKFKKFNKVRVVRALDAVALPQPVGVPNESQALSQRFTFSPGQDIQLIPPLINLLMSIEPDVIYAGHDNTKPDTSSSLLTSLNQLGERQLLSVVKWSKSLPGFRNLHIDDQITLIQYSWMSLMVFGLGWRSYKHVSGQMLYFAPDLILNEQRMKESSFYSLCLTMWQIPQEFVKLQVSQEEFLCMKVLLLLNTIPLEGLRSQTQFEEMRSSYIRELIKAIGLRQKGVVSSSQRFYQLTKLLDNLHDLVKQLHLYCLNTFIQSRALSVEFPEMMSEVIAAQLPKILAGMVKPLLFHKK
Protocol: (§1) Mammalian Two Hybrid Assays.
(§2) To investigate whether hPR was able to recruit transcriptional corepressors upon APRn binding, two hybrid assays have been performed in HEK 293T cells. Cell transfection were carried out according to the protocol used for the PR transactivation assays, with 1 μg of pGAL4-SMRT or pGAL4-NcoR, 2.5 μg of the PR expression vector pV16-PR and 5 μg of the reporter pG5-luc. The plasmid pGAL4-SMRT and pGAL4-NcoR, provided by P. Balaguer, encode the fusion protein between the GAL4 DNA-binding domain (GAL4DBD) and the receptor interacting domain (RID) of the corepressor […], respectively. The expression vector pV16PR encodes the VP16 activation domain of herpes simplex virus fused to the entire hPR and pG5-luc, provided by P. Fuller, encodes the luciferase gene driven by a GAL4-responsive promoter. […] Cell transfection were carried out according to the PR transactivation assays, by using 2 μg of pM-TIF2/Nter-RID or […], 2 μg of the expression vector pV16PR and 5 μg of the reporter pG5luc. The plasmids pM-TIF2/Nter-RID encodes the fusion proteins between the GAL4 DBD and the 1-867 TIF2 sequence corresponding to the Nter and RID domains. The plasmids pMTIF2-Nter encodes the fusion proteins between the GAL4 DBD and the 1-623 TIF2 sequence corresponding to the Nter domain. After 16 h incubation, the transfected cells were washed with PBS containing 2.5 mM EDTA, trypsinized and replated in 24-well plates. […] Cells were lysed and the luciferase and activities were quantified by using a Mithras reader microplates (Berthold).
(§3) Both agonist- and antagonist-bound PR regulate gene transcription with the assistance of transcriptional co-repressors (NCoR, SMRT) or co-activators (namely, TIF-2). To characterize the mechanism by which APRn inactivate hPRB, the capacity of hPRB to recruit transcriptional co-regulators upon APRn binding has been evaluated. […]

hPRB and TIF-2 = molecular target: T2, hPRB and TIF-2 (Homo sapiens, UniProt P06401); experiment: Mammalian two hybrid assay, recruitment of co-activator TIF-2 (TIF-2-Nter, TIF-2-NterRID) by hPRB; settings: HEK293T; for recruitment of co-activator TIF-2 sequences by hPRB upon ligand binding: TIF-2-Nter and TIF-2-NterRID, FIGS. 15-17; for inhibition of progesterone induced TIF-2 recruitment by hPRB: two hybrid, FIG. 18
T2 construct: expressed in transfected cells; host or cells: HEK 293T
T2 sequence (P06401 1-933): T1 sequence (P06401 1-933)
Protocol: as §1, §2
Both agonist- and antagonist-bound PR regulate gene transcription with the assistance of transcriptional co-repressors (NCoR, SMRT) or co-activators (namely, TIF-2). To characterize the mechanism by which APRn inactivate hPRB, the capacity of hPRB to recruit transcriptional co-regulators upon APRn binding has been evaluated. With this aim, mammalian two-hybrid assays in HEK293T cells have been performed by using two series of fusion proteins: (i) the VP16 activation domain of herpes simplex virus fused to the entire hPRB and (ii) the GAL4 DNA-binding domain (DBD) fused to the receptor interacting domain (RID) of corepressors (NCoR and SMRT), the GAL4 DBD fused to the 1-867 sequence of the co-activator TIF2 (corresponding to the Nter and RID domains), the GAL4 DBD fused to the 1-623 sequence of TIF2 (corresponding to the Nter domain).
Further, the capacity of hPRB to bind the co-activator TIF-2 was examined. The two-hybrid assays were performed with the TIF-2 sequence encompassing its N-ter region alone (TIF-2-Nter) or the sequence including the N-ter and the RID regions (TIF-2-NterRID).

hPRB and NCoR = molecular target: T3, hPRB and NCoR (Homo sapiens, UniProt P06401); experiment: Mammalian two hybrid assay, recruitment of co-repressor NCoR by hPRB; settings: HEK293T, FIGS. 12 and 14
T3 construct: expressed in transfected cells; host or cells: HEK 293T
T3 sequence (P06401 1-933): T1 sequence (P06401 1-933)
Protocol: as §1, §2, §3

SMILES	recruitment of co-repressor SMRT by hPRB upon ligand binding (hPRB and SMRT)	recruitment of co-activator TIF-2 sequences by hPRB upon ligand binding (hPRB and TIF-2)	inhibition of progesterone induced TIF-2 recruitment by hPRB (hPRB and TIF-2)	recruitment of co-repressor NCoR by hPRB upon ligand binding (hPRB and NCoR)
CC(=O)[C@H]1CC[C@H]2[C@@H]3CC=C4C[C@@H](F)CC[C@]4(C)[C@H]3CC[C@]12C [APR-16, 3β-Fluoropregn-5-en-20-one]	unable to recruit	unable to recruit the two TIF-2 sequences	able to inhibit the progesterone induced TIF-2 recruitment	unable to recruit
C[C@]12CCC3C(CC=C4C[C@@H](F)CC[C@@H]43)C1CCC2=O (stereo partly drawn) [APR-47, 3β-Fluoro-19-nor-androst-5-en-17-one]	unable to recruit	unable to recruit the two TIF-2 sequences	able to inhibit the progesterone induced TIF-2 recruitment	unable to recruit
CC#C[C@]1(O)CCC2C3CC[C@H]4CCCC[C@@H]4C3CC[C@@]21C (stereo partly drawn) [APR-54, 17α-(1-Propynyl)-19-nor-5-androstan-17β-ol]	unable to recruit	unable to recruit the two TIF-2 sequences	able to inhibit the progesterone induced TIF-2 recruitment	unable to recruit

From US20130203718A1 (priority 2010, published 2013)
